Test results reported in US20150203517A1, “Prodrugs of Compounds that Enhance Antifungal Activity and Compositions of Said Prodrugs” (priority 2014, published 2015).
Counter-ions that a name gives are not always drawn.

Legend:
[1] = Saline solubility at 10.00 mg/mL, 5.00 mg/mL and 2.50 mg/mL (with pH by pH meter); type: physicochemical; settings: saline or isotonic, thermodynamic from solid, concentration expressed as equivalent of Cpd 1, highest tested concentration soluble, read-out: Highest prodrug solubility in saline (equivalent of Cpd 1)
Description: The following procedures were used
Step 1. Sample preparation. An amount of the compound sample was precisely weighed to correspond to around 10 mg of the hydroxamate of compound 1, taking into account the mass of the leaving group and the salt factor if applicable. The sample was placed in a 16×125 mm glass screw cap tube. Saline was added so that the final concentration of hydroxamate 1 was 10.00 mg/mL. The tube was shaken for 1 hour on a Vortex apparatus then centrifuged at 3000 rpm (1800 rcf) for 5 minutes. If the compound example was soluble (no precipitate formed) then the pH was measured with a pH meter, and the procedure continued to step 2. If a precipitate formed then the sample was diluted with saline so that the final concentration of the hydroxamate of compound 1 became 5.00 mg/mL, and the shaking and centrifuging steps were repeated. If the compound example was soluble (no precipitate formed) then the pH was measured with a pH meter, and the procedure continued to step 2. If a precipitate formed then the sample was diluted with saline so that the final concentration of the hydroxamate of compound 1 became 2.50 mg/mL, and the shaking and centrifuging steps were repeated. If the compound example was soluble (no precipitate formed) then the pH was measured with a pH meter, and the procedure continued to step 2

[2] = Conversion of prodrugs to compound 1 in mouse plasma; type: in vitro ADME; settings: mouse plasma (Na-Heparin treated); for Prodrug loss at 0.5 hr / Prodrug loss at 1 hr: 37° C.; for Prodrug solubility in plasma: equivalent to 1.00 mg/mL of compound 1, * = Plasma quickly became cloudy
Description: (§1) Step 1. Sample preparation. A quantity of blank mouse plasma (Na-Heparin treated) was incubated at 37° C. for 30 minutes. An amount of the compound sample was precisely weighed to correspond to around 5.00 mg of the hydroxamate of compound 1, taking into account the mass of the leaving group and the salt factor if applicable. The sample was placed in a 16×125 mm glass screw cap tube. The incubated blank mouse plasma was added so that the final concentration of hydroxamate 1 was 1.00 mg/mL. The sample was sonicated for 30 seconds, shaken for 30 seconds on a Vortex apparatus, and run through the HPLC procedure of Step 2 to get a time point zero value. The samples were stored in an incubator at 37° C., and the HPLC analysis of Step 2 was repeated at 30 minutes and 1 hour
(§2) Step 2. Protein precipitation and HPLC analysis of plasma. A 50 μL aliquot of plasma was taken in a 1.5 mL Eppendorf vial, to which was added 200 μL of MeCN. The vial was capped and shaken on a Vortex apparatus for 30 seconds, then centrifuged at 13000 rpm (15700 rcf) for five minutes. When centrifuging was complete, 100 μL of the supernatant was placed in an injection vial containing an insert, to which was added 100 μL of 0.1% formic acid in water. The vial was capped and shaken on a Vortex apparatus for 30 seconds, and the contents were injected into the HPLC-UV instrument, and a comparison was made of the retention time, peak areas and level of degradation (if any) using the GDADI50 method.

[3] = Saline solubility at 1.00 mg/mL and 0.50 mg/mL (with pH by indicator paper); type: physicochemical; settings: for pH at 1.00 mg/mL of MGCD290 in saline: final concentration of hydroxamate 1 1.00 mg/mL, pH indicator paper; for solubility at 1 h: saline or isotonic, thermodynamic from solid, centrifuged, soluble = no precipitate formed
Description: Assays were performed to determine the saline solubility at 1.00 and 0.50 mg/ml and the stability of certain of the prodrug compounds of Examples 1-111. The following procedures were used.
Step 1. Sample preparation. An amount of the compound sample was precisely weighed to correspond to around 5 mg of the hydroxamate of compound 1, taking into account the mass of the leaving group and the salt factor if applicable. The sample was placed in a 16×125 mm glass screw cap tube. Saline was added so that the final concentration of hydroxamate 1 was 1.00 mg/mL. The pH was measured with pH indicator paper. The tube was shaken for 1 hour on a Vortex apparatus then centrifuged at 3000 rpm (1800 rcf) for 5 minutes. If the compound example was soluble (no precipitate formed) the procedure continued to step 2. If a precipitate formed then the sample was diluted with saline so that the final concentration of the hydroxamate of compound 1 was 0.50 mg/mL, and the shaking and centrifuging steps were repeated. If the compound example was soluble (no precipitate formed) the procedure continued to step 2. If a precipitate formed the sample was discarded. Step 2. HPLC analysis. A 500 μL aliquot of a sample solution prepared according to Step 1 was taken up into a 1.5 mL injection vial to which was added 500 μL of saline. The vial was shaken on a Vortex apparatus, injected into the HPLC instrument (UV detection, zero time point) and the retention time and purity of the sample compound were determined. The injection was repeated after 6 hours and 24 hours, and a comparison was made of the retention time, peak areas and level of degradation (if any) using the GDADI50 method.

[4] = Conversion of prodrugs to compound 1 in human plasma; type: in vitro ADME; settings: human plasma (Na-Heparin treated), 37° C.
Description: as §1, with “blank human” for “blank mouse”, “repeated in” for “repeated at”, “1 hour.” for “1 hour”
as §2
Step 3. Reference sample preparation. An amount of the compound sample was precisely weighed to correspond to around 5.00 mg of the hydroxamate of compound 1, taking into account the mass of the leaving group and the salt factor if applicable. The sample was placed in a 16×125 mm glass screw cap tube. A quantity of MeCN/H2O 50/50 v/v was added so that the final concentration of hydroxamate 1 was 1.00 mg/mL. An injection vial was filled with 100 μL of this sample stock solution and 900 μL of a solution of 40/60 MeCN/0.1% formic acid in water. The vial was capped and the contents were injected into the HPLC-UV instrument, and a comparison was made of the retention time, peak areas and level of degradation (if any) using the GDADI50 method.

[5] = 1.00 mg/mL as hydroxamate 1, shaken 1 hour, read-out: Soluble at 1.00 mg/mL of MGCD290 (Y/N)
[6] = 0.50 mg/mL as hydroxamate 1, shaken 1 hour, read-out: Soluble at 0.5 mg/mL of MGCD290 (Y/N)

Row | SMILES | solubility at 1 h [1] [µg/mL] | Prodrug loss at 0.5 hr [2] [%] | Prodrug loss at 1 hr [2] [%] | Prodrug solubility in plasma [2] | pH at 1.00 mg/mL of MGCD290 in saline [3] | solubility at 1 h [3, 5] [µg/mL] | Prodrug loss at 0.5 hr [4] [%] | Prodrug loss at 1 hr [4] [%] | solubility at 1 h [3, 6] [µg/mL]
1 | NCCCC[C@H](N)C(=O)NCCC(=O)ONC(=O)Cc1ccc(CCCCc2ccccc2)cc1 [Compound 14, (S)-2,6-Diamino-N-(3-oxo-3-(2-(4-(4-phenylbutyl)phenyl)acetamidooxy)propyl)hexanamide di-hydrochloride] | 10000 | 100 | 100 | Yes* | 4-4.5 | > 1000 | 100 | 100.0 | –
2 | NCC1(C(=O)ONC(=O)Cc2ccc(CCCCc3ccccc3)cc2)CC1 [Compound 54, N-(1-(aminomethyl)cyclopropanecarbonyloxy)-2-(4-(4-phenylbutyl)phenyl)acetamide] | 2500 | 62.6 | 100 | Yes | 4-4.5 | > 1000 | 50.9 | 71.6 | –
3 | COCCOCCOCCOCCOCCOCC(=O)N1CCC(C(=O)ONC(=O)Cc2ccc(CCCCc3ccccc3)cc2)CC1 [Compound 120] | – | 100 | 100 | Yes | 4.5-5 | > 1000 | – | – | –
4 | COCCOCCOCC(=O)NCC[C@H](NC(=O)COCCOCCOC)C(=O)NCCC(=O)ONC(=O)Cc1ccc(CCCCc2ccccc2)cc1 [Compound 147] | – | – | – | – | 4.5-5 | < 1000 | – | – | < 500
5 | COCCC(=O)NCCCC[C@H](NC(=O)CCOC)C(=O)NCCC(=O)ONC(=O)Cc1ccc(CCCCc2ccccc2)cc1 [Compound 148] | – | – | – | – | 4.5-5 | < 1000 | – | – | < 500
6 | COCCOCCOCCOCCOCC(=O)NCC[C@H](NC(=O)COCCOCCOCCOCCOC)C(=O)NCCC(=O)ONC(=O)Cc1ccc(CCCCc2ccccc2)cc1 [Compound 149] | – | – | – | – | 4.5-5 | < 1000 | – | – | < 500
7 | COCCOCCOCCOCCOCCOCC(=O)NCC[C@H](NC(=O)COCCOCCOCCOCCOCCOC)C(=O)NCCC(=O)ONC(=O)Cc1ccc(CCCCc2ccccc2)cc1 [Compound 150] | – | – | – | – | 4.5-5 | < 1000 | – | – | < 500
8 | CC(=O)OCC(=O)NCC[C@H](NC(=O)COC(C)=O)C(=O)NCCC(=O)ONC(=O)Cc1ccc(CCCCc2ccccc2)cc1 [Compound 151] | – | – | – | – | 4.5-5 | < 1000 | – | – | < 500
9 | COCCC(=O)NCC[C@H](NC(=O)CCOC)C(=O)NCCC(=O)ONC(=O)Cc1ccc(CCCCc2ccccc2)cc1 [Compound 152] | – | – | – | – | 4.5-5 | < 1000 | – | – | < 500
10 | CC(=O)OCC(=O)NCCCC[C@H](NC(=O)COC(C)=O)C(=O)NCCC(=O)ONC(=O)Cc1ccc(CCCCc2ccccc2)cc1 [Compound 154] | – | – | – | – | 4.5-5 | < 1000 | – | – | < 500
11 | COC(=O)NCCCC[C@H](NC(=O)OC)C(=O)NCCC(=O)ONC(=O)Cc1ccc(CCCCc2ccccc2)cc1 [Compound 155] | – | – | – | – | 4.5-5 | < 1000 | – | – | < 500
12 | COCCC(=O)NCCC[C@H](NC(=O)CCOC)C(=O)NCCC(=O)ONC(=O)Cc1ccc(CCCCc2ccccc2)cc1 [Compound 156] | – | – | – | – | 4.5-5 | < 1000 | – | – | < 500
13 | CC(=O)OCC(=O)NCCC[C@H](NC(=O)COC(C)=O)C(=O)NCCC(=O)ONC(=O)Cc1ccc(CCCCc2ccccc2)cc1 [Compound 157] | – | – | – | – | 4.5-5 | < 1000 | – | – | < 500
14 | COCCOCC(=O)NCCC[C@H](NC(=O)COCCOC)C(=O)NCCC(=O)ONC(=O)Cc1ccc(CCCCc2ccccc2)cc1 [Compound 158] | – | – | – | – | 4.5-5 | < 1000 | – | – | < 500
15 | COCCOCCOCC(=O)NCCC[C@H](NC(=O)COCCOCCOC)C(=O)NCCC(=O)ONC(=O)Cc1ccc(CCCCc2ccccc2)cc1 [Compound 159] | – | – | – | – | 4.5-5 | < 1000 | – | – | < 500
16 | COCCOCCOCCOCCOCC(=O)NCCC[C@H](NC(=O)COCCOCCOCCOCCOC)C(=O)NCCC(=O)ONC(=O)Cc1ccc(CCCCc2ccccc2)cc1 [Compound 160] | – | – | – | – | 4.5-5 | < 1000 | – | – | < 500
17 | COCCOCC(=O)NCCCC[C@H](NC(=O)COCCOC)C(=O)NCC1(C(=O)ONC(=O)Cc2ccc(CCCCc3ccccc3)cc2)CC1 [Compound 161] | – | – | – | – | 4.5-5 | < 1000 | – | – | < 500
18 | COCCOCCOCC(=O)NCCCC[C@H](NC(=O)COCCOCCOC)C(=O)NCC1(C(=O)ONC(=O)Cc2ccc(CCCCc3ccccc3)cc2)CC1 [Compound 162] | – | – | – | – | 4.5-5 | > 1000 | – | – | –
19 | COCCOCC(=O)NCC[C@H](NC(=O)COCCOC)C(=O)NCCC(=O)ONC(=O)Cc1ccc(CCCCc2ccccc2)cc1 [Compound 163] | – | – | – | – | 4.5-5 | < 1000 | – | – | < 500
